Entries after “also recorded” stand apart in the source; their conditions may differ. Read-outs that look alike come from different tables or passages of the source.
Experiments:
[1] = target: T1, human FXRα (Homo sapiens, UniProt Q96RI1); assay: cell-based
T1 sequence (Q96RI1 1-486): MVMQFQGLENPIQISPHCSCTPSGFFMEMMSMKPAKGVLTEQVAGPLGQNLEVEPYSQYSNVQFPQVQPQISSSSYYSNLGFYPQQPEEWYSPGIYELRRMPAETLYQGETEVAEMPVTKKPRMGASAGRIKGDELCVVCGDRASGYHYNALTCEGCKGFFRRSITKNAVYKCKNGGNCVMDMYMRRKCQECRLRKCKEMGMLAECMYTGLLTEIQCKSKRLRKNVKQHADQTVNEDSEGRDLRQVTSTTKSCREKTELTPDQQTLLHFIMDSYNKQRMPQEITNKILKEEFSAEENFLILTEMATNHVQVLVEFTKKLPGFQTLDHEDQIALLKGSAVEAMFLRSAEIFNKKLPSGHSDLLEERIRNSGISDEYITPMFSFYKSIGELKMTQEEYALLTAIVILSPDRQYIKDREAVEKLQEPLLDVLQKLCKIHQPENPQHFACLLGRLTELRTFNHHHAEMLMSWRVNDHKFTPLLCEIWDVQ
T1 sequence (P19793 1-462 partner): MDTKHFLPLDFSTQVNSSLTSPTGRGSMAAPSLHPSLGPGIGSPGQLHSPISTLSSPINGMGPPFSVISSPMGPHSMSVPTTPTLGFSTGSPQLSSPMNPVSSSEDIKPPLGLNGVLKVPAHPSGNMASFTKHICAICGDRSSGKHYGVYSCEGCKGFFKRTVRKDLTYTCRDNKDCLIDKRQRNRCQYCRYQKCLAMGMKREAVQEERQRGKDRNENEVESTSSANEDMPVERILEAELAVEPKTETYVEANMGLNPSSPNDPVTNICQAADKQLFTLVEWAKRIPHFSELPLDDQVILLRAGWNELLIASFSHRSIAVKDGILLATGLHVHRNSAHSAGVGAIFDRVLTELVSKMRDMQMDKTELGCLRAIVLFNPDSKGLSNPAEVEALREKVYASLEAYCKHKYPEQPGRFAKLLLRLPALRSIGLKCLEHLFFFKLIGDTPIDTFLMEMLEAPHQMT

[2] = target: T2, medaka FXRα2 (Oryzias latipes, UniProt H2M6M7); assay: Transient transactivation luciferase assay in HEK293T cells, antagonist mode; assay type: cell-based; conditions: Antagonists, in the presence of GW4064
T2 sequence (H2M6M7 1-485): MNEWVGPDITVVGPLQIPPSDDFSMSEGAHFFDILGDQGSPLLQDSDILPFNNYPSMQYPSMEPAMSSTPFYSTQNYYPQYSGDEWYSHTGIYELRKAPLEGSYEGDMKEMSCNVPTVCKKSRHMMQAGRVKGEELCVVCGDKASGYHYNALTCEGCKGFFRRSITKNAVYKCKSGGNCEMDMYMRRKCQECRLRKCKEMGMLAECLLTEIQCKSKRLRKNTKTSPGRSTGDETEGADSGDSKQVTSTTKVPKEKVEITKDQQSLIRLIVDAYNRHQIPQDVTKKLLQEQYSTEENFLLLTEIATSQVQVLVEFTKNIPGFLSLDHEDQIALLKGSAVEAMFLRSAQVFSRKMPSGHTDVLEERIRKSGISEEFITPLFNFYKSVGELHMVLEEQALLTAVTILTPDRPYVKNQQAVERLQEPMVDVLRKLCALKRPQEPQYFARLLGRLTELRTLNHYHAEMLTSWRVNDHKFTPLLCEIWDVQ

[3] = system: Human FXRa; conditions: Antagonists, cited from earlier work; for AC50: Tox21 qHTS, ref US EPA CompTox Chemicals Dashboard; for Tox21 Results Human FXRa Activity Human FXRa: Hsu et al. 2016
[4] = target: T1, human FXRα; assay type: cell-based
[5] = target: T2, medaka FXRα2; assay: Transient transactivation luciferase assay in HEK293T cells, agonist mode; assay type: cell-based
[6] = system: Human FXRa; conditions: Agonists, cited from earlier work
[7] = system: medaka larvae; assay: Toxicity to medaka larvae during in vivo exposure; parameters: species or system Medaka (Oryzias latipes); conditions: between 0.5 and 10 µM
[8] = target: NR box of human PGC1α fused to the yeast Gal4 DNA-binding domain (pM-PGC1α) (human) (UniProt Q9UBK2); assay: two-hybrid
Chain of NR box of human PGC1α fused to the yeast Gal4 DNA-binding domain (pM-PGC1α) (human) (Q9UBK2 whole entry, the tested form may be a part): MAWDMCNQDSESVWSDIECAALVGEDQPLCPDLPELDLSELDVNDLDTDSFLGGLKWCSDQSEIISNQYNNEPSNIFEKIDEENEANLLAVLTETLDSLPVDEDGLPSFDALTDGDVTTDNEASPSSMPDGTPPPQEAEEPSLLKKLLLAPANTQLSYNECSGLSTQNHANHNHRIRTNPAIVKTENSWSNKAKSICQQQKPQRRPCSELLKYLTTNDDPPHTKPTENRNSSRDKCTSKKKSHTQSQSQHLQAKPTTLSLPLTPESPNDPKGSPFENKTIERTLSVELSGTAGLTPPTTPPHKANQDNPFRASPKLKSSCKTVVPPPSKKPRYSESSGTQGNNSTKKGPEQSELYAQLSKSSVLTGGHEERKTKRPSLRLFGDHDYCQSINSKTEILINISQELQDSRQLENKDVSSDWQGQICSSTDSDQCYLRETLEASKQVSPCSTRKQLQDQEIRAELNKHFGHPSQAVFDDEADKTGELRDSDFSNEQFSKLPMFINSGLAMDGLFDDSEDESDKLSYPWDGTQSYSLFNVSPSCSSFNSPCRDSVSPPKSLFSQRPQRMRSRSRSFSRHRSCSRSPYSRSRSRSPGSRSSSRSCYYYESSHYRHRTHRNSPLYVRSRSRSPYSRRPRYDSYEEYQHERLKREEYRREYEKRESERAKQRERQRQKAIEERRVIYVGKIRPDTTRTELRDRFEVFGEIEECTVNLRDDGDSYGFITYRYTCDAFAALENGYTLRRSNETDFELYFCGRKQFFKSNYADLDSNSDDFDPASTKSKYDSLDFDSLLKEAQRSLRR

[9] = target: NR box of human PGC1α fused to the yeast Gal4 DNA-binding domain (pM-PGC1α) (human) (UniProt Q9UBK2); assay: two-hybrid; remark: listed apart in the source
[10] = read-out: Current Study Human FXRa AC50
[11] = Tox21 qHTS, ref US EPA CompTox Chemicals Dashboard
[12] = Agonists, HEK293T, 24 h, listed as maleic hydrazide
[13] = Agonists, HEK293T, 24 h, listed as prometon

Cc1c(COC(=O)[C@@H]2[C@H](/C=C(\Cl)C(F)(F)F)C2(C)C)cccc1-c1ccccc1 (racemic) [Bifenthrin]
AC50 [1]: 34.6 µM | Current Study Human FXRa Activity Human FXRa [1]: Active | EC50 [1]: 34.6 µM | Current Study Medaka FXRa2 Activity Medaka FXRa2 [2]: exhibited antagonist activity; also recorded: Active | AC50 [3]: 13.3 µM | Tox21 Results Human FXRa Activity Human FXRa ([3]; ref Tox21 dataset): Active | Tox21 Results Human FXRa AC50 ([3]; ref Tox21 dataset): 4.96 µM

CCC(C)(c1ccc(O)cc1)c1ccc(O)cc1 [Bisphenol B]
AC50 [1]: 11.9 µM | Current Study Human FXRa Activity Human FXRa [1]: Active | EC50 [1]: 11.9 µM | Current Study Medaka FXRa2 Activity Medaka FXRa2 [2]: Active | Current Study Medaka FXRa2 Activity Medaka FXRa2 ([2]; listed as bisphenol B): exhibited antagonist activity | AC50 [3]: 57.2 µM | Tox21 Results Human FXRa Activity Human FXRa ([3]; ref Tox21 dataset): Active

C[C@@H]1C[C@H]2O[C@@]3(O[C@@H]2C(C)(C)O)[C@H](O)[C@@]2(C)[C@@H]4CC[C@H]5C(C)(C)[C@@H](O[C@@H]6OC[C@@H](O)[C@H](O)[C@H]6O)CC[C@@]56C[C@@]46CC[C@]2(C)[C@@H]13 [Cimicifugoside]
Current Study Human FXRa Activity Human FXRa [4]: Active | AC50 [4, 10]: 9.8 µM | Current Study Medaka FXRa2 Activity Medaka FXRa2 ([5]; Agonists, HEK293T, 24 h): Active | AC50 ([5]; read-out: Current Study Medaka FXRa2 AC50, Agonists, HEK293T, 24 h): > 100 µM | AC50 [6, 11]: 5 µM | Activity Decision [6, 11]: Active | Tox21 Results Human FXRa AC50 ([6]; ref Tox21 dataset): 5.52 µM | Tox21 Results Human FXRa Activity Human FXRa ([6]; ref Tox21 dataset): Active

COc1cc2c(c(OC)c1OC)-c1ccc(OC)c(=O)cc1[C@@H](NC(C)=O)CC2 [Colchicine, reference compound]
Current Study Human FXRa Activity Human FXRa [1]: Inactive | Current Study Medaka FXRa2 Activity Medaka FXRa2 [2]: Inactive | Tox21 Results Human FXRa Activity Human FXRa ([3]; ref Tox21 dataset): Inactive

CC(C)c1onc(-c2c(Cl)cccc2Cl)c1COc1ccc(C=Cc2cccc(C(=O)O)c2)c(Cl)c1 [GW4064, 3-(2,6-Dichlorophenyl)-4-(3′-carboxy-2-chlorostilben-4-yl) oxymethyl-5-isopropylisoxazole, reference compound]
EC50 [5]: 269 nM

O=c1ccc(=O)[nH][nH]1 [Maleic hydrazide]
Current Study Human FXRa Activity Human FXRa ([4]; Agonists, HEK293T, 24 h): Inactive | Current Study Human FXRa Activity Human FXRa [4, 12]: confirmed inactive | Current Study Medaka FXRa2 Activity Medaka FXRa2 ([5]; Agonists, HEK293T, 24 h): Inactive | Current Study Medaka FXRa2 Activity Medaka FXRa2 [5, 12]: confirmed as inactive | cytotoxicity / toxicity to medaka larvae in agonist exposures [7]: significant cytotoxicity | Activity Decision [6, 11]: Inactive | Tox21 Results Human FXRa Activity Human FXRa ([6]; ref Tox21 dataset): Inactive

CO/N=C1\C[C@]2(C[C@@H]3C[C@@H](C/C=C(\C)C[C@@H](C)/C=C/C=C4\CO[C@@H]5[C@H](O)C(C)=C[C@@H](C(=O)O3)[C@]45O)O2)O[C@H](/C(C)=C/C(C)C)[C@H]1C [Moxidectin, reference compound]
AC50 [1]: 12.5 µM | Current Study Human FXRa Activity Human FXRa [1]: Active | EC50 [1]: 12.5 µM | Current Study Medaka FXRa2 Activity Medaka FXRa2 [2]: Active | Tox21 Results Human FXRa Activity Human FXRa ([3]; ref Tox21 dataset): Active/Inactive

O=C1OC(c2ccc(O)cc2)(c2ccc(O)cc2)c2ccccc21 [Phenolphthalein]
cytotoxicity / toxicity to medaka larvae in agonist exposures [7]: significant cytotoxicity; also recorded: toxic to medaka larvae

COc1nc(NC(C)C)nc(NC(C)C)n1 [Prometon]
Current Study Human FXRa Activity Human FXRa ([4]; Agonists, HEK293T, 24 h): Inactive | Current Study Human FXRa Activity Human FXRa [4, 13]: confirmed inactive | Current Study Medaka FXRa2 Activity Medaka FXRa2 ([5]; Agonists, HEK293T, 24 h): Inactive | Current Study Medaka FXRa2 Activity Medaka FXRa2 [5, 13]: confirmed as inactive | Activity Decision [6, 11]: Inactive | Tox21 Results Human FXRa Activity Human FXRa ([6]; ref Tox21 dataset): Inactive

CCCCCCCC(=O)OCC(COC(=O)CCCCCCC)OC(=O)CCCCCCC [Tricaprylin]
Current Study Human FXRa Activity Human FXRa [1]: Inactive | Current Study Medaka FXRa2 Activity Medaka FXRa2 [2]: Active | Current Study Medaka FXRa2 Activity Medaka FXRa2 ([2]; listed as tricaprylin): exhibited antagonist activity | Tox21 Results Human FXRa Activity Human FXRa ([3]; ref Tox21 dataset): Inactive

c1ccc(P(c2ccccc2)c2ccccc2)cc1 [Triphenylphosphine]
cytotoxicity / toxicity to medaka larvae in agonist exposures [7]: significant cytotoxicity

Ivermectin [reference compound]
Current Study Human FXRa Activity Human FXRa [1]: Active | AC50 [1, 10]: 2.35 µM | Current Study Medaka FXRa2 Activity Medaka FXRa2 [2]: Active | AC50 ([2]; read-out: Current Study Medaka FXRa2 AC50): 11.2 µM | Tox21 Results Human FXRa Activity Human FXRa ([3]; ref Tox21 dataset): Active

VP16 activation domain fused to medaka FXRα2 (pVP16-mFXRα2) (receptor)
recruitment with moxidectin, percent (reference as for human FXRα: GW4064 alone) [8]: 126%

B1: VP16 activation domain fused to full-length human FXRα (pVP16-hFXRα) (receptor)
chain: MVMQFQGLENPIQISPHCSCTPSGFFMEMMSMKPAKGVLTEQVAGPLGQNLEVEPYSQYSNVQFPQVQPQISSSSYYSNLGFYPQQPEEWYSPGIYELRRMPAETLYQGETEVAEMPVTKKPRMGASAGRIKGDELCVVCGDRASGYHYNALTCEGCKGFFRRSITKNAVYKCKNGGNCVMDMYMRRKCQECRLRKCKEMGMLAECMYTGLLTEIQCKSKRLRKNVKQHADQTVNEDSEGRDLRQVTSTTKSCREKTELTPDQQTLLHFIMDSYNKQRMPQEITNKILKEEFSAEENFLILTEMATNHVQVLVEFTKKLPGFQTLDHEDQIALLKGSAVEAMFLRSAEIFNKKLPSGHSDLLEERIRNSGISDEYITPMFSFYKSIGELKMTQEEYALLTAIVILSPDRQYIKDREAVEKLQEPLLDVLQKLCKIHQPENPQHFACLLGRLTELRTFNHHHAEMLMSWRVNDHKFTPLLCEIWDVQ
recruitment with moxidectin and GW4064, percent of that with GW4064 alone [9]: 132%
